Values after ≈ are worked out from the molar mass of the structure shown. Active and inactive are the calls of the source. The rule behind the calls is not given here.

The values below come from ChEMBL document CHEMBL2203064, “Inhibitors of the acetyltransferase domain of N-acetylglucosamine-1-phosphate-uridylyltransferase/glucosamine-1-phosphate-acetyltransferase (GlmU). Part 2: Optimization of physical properties leading to antibacterial aryl sulfonamides” (Bioorg Med Chem Lett, 2012).

The test system of series [1] is Haemophilus influenzae. The experiment in a line: Antibacterial activity against acrB efflux-pump deficient mutant of Haemophilus influenzae. Type of series: functional.
Series [2] is described as follows: Inhibition of Streptococcus pneumoniae GlmU.
Series [3] can be described thus: Inhibition of Escherichia coli GlmU.
Series [4] can be described thus: Inhibition of Haemophilus influenzae GlmU.
A short description of the next series: physchem. To be noted: buffer, pH 7.4.
The test system of series [5] is Haemophilus influenzae. The experiment in a line: Antibacterial activity against acrB efflux-pump deficient mutant of Haemophilus influenzae assessed as inhibition of lipid biosynthesis. Type of series: functional, organism-based.
Series [6] deals with Haemophilus influenzae. The experiment in a line: Antibacterial activity against acrB efflux-pump deficient mutant of Haemophilus influenzae assessed as inhibition of cell-wall biosynthesis. Type of series: functional, organism-based.
Series [7] concerns Haemophilus influenzae. The experiment in a line: Antibacterial activity against acrB efflux-pump deficient mutant of Haemophilus influenzae assessed as inhibition of radio-labeled biosynthetic precursor incorporation. Type of series: functional, organism-based.

Description for physchem: Lipophilicity, log D of the compound at pH 7.4

As to `COc1cc(OC)c(S(=O)(=O)N(c2ccccc2)c2ccc3ccccc3c2)cc1NC(=O)CCC(=O)O`, in the series with Haemophilus influenzae [1], the MIC came out at 32 µg/mL (≈ 59.9 µM). Moreover, the values for the IC50 in series [2], in series [3] and in series [4] were 8400 nM, 40 nM and 830 nM, respectively.
As to `COc1cc(OC)c(S(=O)(=O)N2c3ccccc3CCC2C)cc1NC(=O)[C@@H]1C(C)[C@H]1C(=O)O` (mixture of isomers), in the series with Haemophilus influenzae [1], the MIC worked out at 128 µg/mL. Further, the values for the IC50 in series [2], in series [3] and in series [4] were 5900 nM, 400 nM and 510 nM, respectively. Moreover, the logD (in general, lipophilicity at a set pH, counting ionised and neutral species) in the series “physchem” was -0.39.
With `COc1cc(O)c(S(=O)(=O)N2c3ccccc3Oc3ccccc32)cc1NC(=O)[C@@H]1C(C)[C@H]1C(=O)O` (relative stereo), in the series on Haemophilus influenzae [1], the MIC is 32 µg/mL (≈ 62.7 µM). Besides, the IC50 – broadly, the midpoint of a concentration-inhibition curve – in series [2] was determined as 30300 nM; in series [3], 60 nM; in series [4] it was 30 nM.
In the series on Haemophilus influenzae [1], `COc1cc(O)c(S(=O)(=O)N2c3ccccc3CCC2C)cc1NC(=O)[C@@H]1C(C)[C@H]1C(=O)O` (relative stereo) had an MIC of 128 µg/mL (≈ 270 µM). Also, the IC50 in series [2] is 7840 nM; in series [3] it was under 480 nM; in series [4] it was 380 nM.
Regarding `COc1cc(OC)c(S(=O)(=O)N2c3ccccc3Oc3ccccc32)cc1NC(=O)Cc1ccnc(F)c1`, the MIC in the series with Haemophilus influenzae [1] was over 128 µg/mL. Besides, the IC50 turned out to be 9900 nM in series [2], 90 nM in series [3] and 30 nM in series [4]. In “physchem”, the logD turned out to be 3.37.
On to `COc1cc(OC)c(S(=O)(=O)N2Cc3ccccc3Oc3ccccc32)cc1NC(=O)CCC(=O)O`, for which the MIC against Haemophilus influenzae [1] is 32 µg/mL (≈ 62.4 µM). Further, the concentration for half-maximal inhibition (IC50) was found to be 55000 nM in series [2], 30 nM in series [3] and 80 nM in series [4].
Turning to `COc1cc(O)c(S(=O)(=O)N2c3ccccc3CCC2C)cc1NC(=O)CCC(=O)O` (stereo unspecified), the inhibition entry in the series on Haemophilus influenzae [5], in the series with Haemophilus influenzae [6] and in the series with Haemophilus influenzae [7] was “Active” in each case. This molecule also displayed an MIC against Haemophilus influenzae [1] of 32 µg/mL (≈ 71.3 µM). For the same molecule, the values for the IC50 in series [2], in series [3] and in series [4] were 46600 nM, 50 nM and 280 nM, respectively. In “physchem”, this molecule returned a logD of -0.27.
Take `COc1cc(OC)c(S(=O)(=O)N2c3ccccc3Oc3ccccc32)cc1NC(=O)CCC(=O)O`: the inhibition entry in the series with Haemophilus influenzae [5], in the series on Haemophilus influenzae [6] and with Haemophilus influenzae [7] was “Active” throughout. Further, the MIC with Haemophilus influenzae [1] is 32 µg/mL (≈ 64.2 µM). Besides, the results for the half-maximal inhibitory concentration (IC50) in series [2], in series [3] and in series [4] were 14600 nM, 10 nM and 20 nM, respectively.
For the molecule `COc1cc(OC)c(S(=O)(=O)N(c2ccc(C)cc2)c2ccc(C)cc2)cc1NC(=O)CCC(=O)O`, the MIC in the series with Haemophilus influenzae [1] amounted to 32 µg/mL (≈ 62.4 µM). Further, the IC50 in series [2] was found to be 48000 nM; in series [3], 40 nM; in series [4], 320 nM.
On to `COc1cc(OC)c(S(=O)(=O)N2c3ccccc3CCC2C)cc1NC(=O)Cc1ccnc(F)c1` (stereo unspecified), for which the MIC against Haemophilus influenzae [1] is over 128 µg/mL. Moreover, the half-inhibitory concentration (IC50) is 9000 nM in series [2], 800 nM in series [3] and 520 nM in series [4]. In addition, the logD in the series “physchem” came out at 2.49.
Regarding `COc1cc(OC)c(S(=O)(=O)N2c3ccccc3Oc3ccccc32)cc1NC(=O)/C=C/C(=O)O`, the MIC against Haemophilus influenzae [1] stood at 64 µg/mL (≈ 129 µM). In addition, the values for the IC50 in series [2], in series [3] and in series [4] were 21500 nM, 10 nM and 20 nM, respectively. In addition, in “physchem”, the logD is -0.71.
Take `COc1cc(OC)c(S(=O)(=O)N2c3ccccc3Sc3ccccc32)cc1NC(=O)CCC(=O)O`: in the series with Haemophilus influenzae [1], the MIC is over 64 µg/mL. Moreover, the 50% inhibitory concentration (IC50) in series [2] stood at 36900 nM; in series [3] it was 90 nM; in series [4] it was 370 nM. Further, the log distribution coefficient (logD) in the series “physchem” is -0.31.
The corresponding values for `COc1cc(OC)c(S(=O)(=O)N2c3ccccc3CCC2C)cc1NC(=O)CCc1nn[nH]n1` (stereo unspecified) are over 64 µg/mL, 24700 nM, 430 nM, 600 nM and -0.34.
For the molecule `COc1cc(OC)c(S(=O)(=O)N(c2ccccc2)c2ccc(N)cc2)cc1NC(=O)CCC(=O)O`, the MIC with Haemophilus influenzae [1] was over 64 µg/mL. The IC50 in series [2] worked out at 40200 nM; in series [3], 20 nM; in series [4], 400 nM.
Regarding `COc1cc(OC)c(S(=O)(=O)N(c2ccccc2)c2ccccc2)cc1NC(=O)CCC(=O)O`, the MIC against Haemophilus influenzae [1] is over 64 µg/mL. The results for the IC50 in series [2], in series [3] and in series [4] were 25500 nM, 40 nM and 910 nM, respectively.
The corresponding values for `COc1cc(OC)c(S(=O)(=O)N2c3ccccc3Oc3ccccc32)cc1NC(=O)Cc1ccncc1` are 64 µg/mL (≈ 124 µM), 32000 nM, 60 nM and 30 nM.
On to `COc1cc(OC)c(S(=O)(=O)N2c3ccccc3Oc3ccccc32)cc1NC(=O)[C@@H]1C(C)[C@H]1C(=O)O` (mixture of isomers), for which the MIC against Haemophilus influenzae [1] is 32 µg/mL. For the same molecule, the figures for the IC50 in series [2], in series [3] and in series [4] were 5300 nM, 30 nM and 10 nM, respectively. The logD in the series “physchem” stood at 0.06.
In the series on Haemophilus influenzae [1], `COc1cc(OC)c(S(=O)(=O)N2c3ccccc3CCC2C)cc1NC(=O)Cc1ccnc(C#N)c1` (stereo unspecified) registered an MIC of over 128 µg/mL. For the same molecule, the IC50 in series [2] amounted to 10000 nM; in series [3], 680 nM; in series [4] it was 670 nM.
